Test results as given in paper PMC12334608 (Nature Communications, 2025).
Numbering of substitutions follows the chain as printed. Several values for one entry are separate records, joined by “and”; a condition that tells them apart may be missing. Identical values can stand only once.

Legend:
[1] = target: T1, apo ACOX-1.1 (Caenorhabditis elegans, UniProt O62140); assay: Enzyme-coupled kinetic assay, wild-type apo ACOX-1.1; format: biochemical, C. elegans; details: EC50 for ATP
T1 sequence (O62140 1-674): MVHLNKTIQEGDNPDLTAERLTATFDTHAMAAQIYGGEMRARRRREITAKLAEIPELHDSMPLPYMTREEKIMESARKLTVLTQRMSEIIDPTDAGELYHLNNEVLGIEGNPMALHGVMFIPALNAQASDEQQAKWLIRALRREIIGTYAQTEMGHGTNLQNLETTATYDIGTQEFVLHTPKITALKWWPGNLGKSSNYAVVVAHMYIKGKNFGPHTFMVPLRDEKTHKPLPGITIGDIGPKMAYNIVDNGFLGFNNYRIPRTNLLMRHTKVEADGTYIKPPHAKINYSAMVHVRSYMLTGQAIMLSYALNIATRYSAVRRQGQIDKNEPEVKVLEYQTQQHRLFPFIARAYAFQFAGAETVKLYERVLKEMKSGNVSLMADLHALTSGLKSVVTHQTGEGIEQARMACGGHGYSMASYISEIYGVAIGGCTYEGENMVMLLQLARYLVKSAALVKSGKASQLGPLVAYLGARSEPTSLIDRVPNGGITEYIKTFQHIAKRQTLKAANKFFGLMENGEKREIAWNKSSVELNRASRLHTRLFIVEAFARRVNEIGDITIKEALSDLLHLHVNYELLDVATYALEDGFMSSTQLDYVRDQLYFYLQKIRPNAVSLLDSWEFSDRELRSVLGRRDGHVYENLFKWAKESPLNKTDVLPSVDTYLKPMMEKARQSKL

[2] = target: T1, apo ACOX-1.1; assay: FAD and ATP dissociation constants by fluorescence polarization; format: binding, C. elegans; details: KD of ACOX-1.1 for ATP, 4 μM apo ACOX-1.1, 100 nM FAD; 95% CI: 6.1–27.5 μM
[3] = target: T2, ACOX-1.1(R343Q) (Caenorhabditis elegans, UniProt O62140, R343Q); assay: Enzyme-coupled kinetic assay, ACOX-1.1; format: biochemical, C. elegans; details: varying ATP
T2 sequence (O62140 1-674 R343Q): T1 sequence (O62140 1-674) with R343Q

[4] = target: T3, ACOX-1.1(K391N) (Caenorhabditis elegans, UniProt O62140, K391N); assay: Enzyme-coupled kinetic assay, ACOX-1.1; format: biochemical, C. elegans
T3 sequence (O62140 1-674 K391N): T1 sequence (O62140 1-674) with K391N

[5] = target: T4, ACOX-1.1(R295A) (Caenorhabditis elegans, UniProt O62140, R295A); assay: Enzyme-coupled kinetic assay, ACOX-1.1; format: biochemical, C. elegans
T4 sequence (O62140 1-674 R295A): T1 sequence (O62140 1-674) with R295A

For `Nc1ncnc2c1ncn2[C@@H]1O[C@H](COP(=O)(O)OP(=O)(O)OP(=O)(O)O)[C@@H](O)[C@H]1O` [ATP], the EC50 ([1]; 10 μM FAD, 95% CI: 54.8–87.1 μM) was 69.4 µM and ~69.4 µM, the EC50 ([1]; 200 μM FAD, 95% CI: 40.5–328.8 μM) was 111 µM and the Kd [2] was 20.7 µM. For the same compound, the “influence of ATP on the activity of the enzyme” value [3] was “no influence on the activity of the enzyme”, the “response of enzyme activity to ATP” value [4] was “did not respond to ATP” and the “response of enzyme activity to ATP” value [5] was “do not respond to ATP”.
